Measured values from patent US8716228B2, “GPR54 agonists or antagonists for treatment of diseases presenting behavioral abnormalities” (YEDA Research and Development Co. Ltd., priority 2009, dated 2014).
Structures can show the parent of a compound that is named as a salt. Square brackets hold non-standard residues; d marks the D form. Peptide text beside a SMILES is read from it. dPhe(4-Cl) = N[C@H](Cc1ccc(Cl)cc1)C(=O)O; d2Nal = N[C@H](Cc1ccc2ccccc2c1)C(=O)O; dCit = NC(=O)NCCC[C@@H](N)C(=O)O; d3Pal = N[C@H](Cc1cccnc1)C(=O)O

What was measured:
C57B1/6 mice = assay: PPI in MK-801 pharmacological model of schizophrenia; format: in vivo, mouse; conditions: acute MK-801 0.1 mg/kg i.p., PPI 15 min later, vs naive mice
Protocol: (§1) Prepulse Inhibition (PPI). PPI testing was performed within startle chambers purchased from Med Associates Inc (Med Associates, St. Albans, Vt., USA). PPI was analyzed as described previously (Kipnis et al., 2004). Briefly, during a period of acclimation, a 65-dB background noise was applied for 5-min, and continued throughout the test session. All sessions for testing of PPI consisted of startle trials (pulse alone, 40-ms, 120-dB), prepulse trials (prepulse 20-ms, 69, 73, 78, or 81 dB followed by a (100-ms delay) pulse), and no-stimulus trials. All sessions were presented in pseudo-random order. The average time between trials was 15 s (range 12-30 s). PPI was calculated as: % PPI=100−{[(startle response for prepulse+pulse)/(startle response for pulse-alone)]×100}. In all the experiments, there were no significant differences between groups in trials of startle reactivity to pulse alone, and in no-stimulation trials. Data from no-stimulation trials are not included in the results because the values obtained were negligible relative to values from trials containing startle stimuli. Reduced PPI is associated with schizophrenia-related behavior. […]
To further establish the antipsychotic effect of Kp-10, we evaluated its ability to overcome psychotic symptoms induced by the psycho-mimetic agent, MK-801 (N-methyl-D-aspartate (NMDA) antagonist), which induces neurotransmitter imbalance. […]

naive C57B1/6 mice [1] = assay: PPI in naive C57B1/6 mice; format: in vivo, mouse; conditions: naive animals, GnRH receptor antagonist alone
Protocol: Prepulse Inhibition (PPI). PPI testing was performed within startle chambers purchased from Med Associates Inc (Med Associates, St. Albans, Vt., USA). […] Briefly, during a period of acclimation, a 65-dB background noise was applied for 5-min, and continued throughout the test session. All sessions for testing of PPI consisted of startle trials (pulse alone, 40-ms, 120-dB), prepulse trials (prepulse 20-ms, 69, 73, 78, or 81 dB followed by a (100-ms delay) pulse), and no-stimulus trials. All sessions were presented in pseudo-random order. The average time between trials was 15 s (range 12-30 s). PPI was calculated as: % PPI=100−{[(startle response for prepulse+pulse)/(startle response for pulse-alone)]×100}. […] Data from no-stimulation trials are not included in the results because the values obtained were negligible relative to values from trials containing startle stimuli.
Neurotensin receptor antagonist SR142948 (TOCRIS COOKSON LTD) was used at 100 μg/kg 60 min before the PPI analysis.
GnRH receptor antagonist Cetrorelix Acetate (Cetrotide™, Anaspec Inc. Fremont, Calif.). Control mice were administered the same volume of PBS.
To examine whether Kp-10 can elevate PPI in naïve mice in a dose dependent manner, we analyzed PPI in C57B1/6 mice that were injected i.p with 100 μl of 1/10/100 μM Kp-10 (SEQ ID NO:3).

[2] = tested on: poly I:C rat model for schizophrenia; conditions: prophylactic treatment in peri-adolescence; cited from earlier work
Lewis rats [3] = assay: Experimental autoimmune encephalomyelitis (EAE); format: in vivo; conditions: female offspring after prenatal poly I:C treatment, MBP68-86 immunization
lymphocytes = assay: Lymphocyte proliferation assay after MBP68-86 vaccination; format: cell-based, Lewis rats; conditions: offspring after prenatal poly I:C treatment
[4] = tested on: offspring of poly I:C treated dams; assay: PPI in offspring of poly I:C treated dams (mouse model for schizophrenia); format: in vivo; conditions: pregnant C57B1/6 mice 4 mg/kg poly I:C, vs saline
Protocol: (§2) Poly I:C administration. Rats or mice were bred, and the first day after copulation was defined as day 1 of pregnancy. On gestation day 15, pregnant animals were injected intravenously with 4.0 mg/kg poly I:C (Sigma-Aldrich, Israel) dissolved in saline, or an equivalent volume of saline as a control. Both rats and mice received the same protocol of poly I:C administration.
Prepulse Inhibition (PPI). PPI testing was performed within startle chambers purchased from Med Associates Inc (Med Associates, St. Albans, Vt., USA). PPI was analyzed as described previously (Kipnis et al., 2004). Briefly, during a period of acclimation, a 65-dB background noise was applied for 5-min, and continued throughout the test session. All sessions for testing of PPI consisted of startle trials (pulse alone, 40-ms, 120-dB), prepulse trials (prepulse 20-ms, 69, 73, 78, or 81 dB followed by a (100-ms delay) pulse), and no-stimulus trials. All sessions were presented in pseudo-random order. The average time between trials was 15 s (range 12-30 s). PPI was calculated as: % PPI=100−{[(startle response for prepulse+pulse)/(startle response for pulse-alone)]×100}. In all the experiments, there were no significant differences between groups in trials of startle reactivity to pulse alone, and in no-stimulation trials. Data from no-stimulation trials are not included in the results because the values obtained were negligible relative to values from trials containing startle stimuli. Reduced PPI is associated with schizophrenia-related behavior. The same protocol was used in mice and rats (FIG. 1A).
Kisspeptin treatment. Mice were injected i.p with 100 μl of 1/10/100 μM Kp-10 peptide (SEQ ID NO:3) (synthesized at the Weizmann Institute of Science, or Sigma-Aldrich, Israel) dissolved in PBS, 30 minutes before the PPI analysis.
The ability of a normal lymphocyte population to reverse abnormal PPI behavior in immune deficient mice, encouraged us to test whether immune cells derived from the offspring of poly I:C treated dams would reverse the abnormal behavior of SCID mice in the PPI test. […]

BDNF = assay: qPCR of BDNF transcripts in hippocampus; format: in vivo, mouse; conditions: mRNA, offspring of poly I:C treated dams treated at 8 weeks with Kp-10 or PBS
Protocol: RNA purification, cDNA synthesis, reverse transcription PCR, and real-time quantitative PCR analysis. For RNA expression analysis, cells from whole hippocampi were extracted with TRI Reagent (MRC, Cincinnati, Ohio), and total cellular RNA was purified from the lysates using the RNeasy kit (Qiagen, Hilden, Germany). RNA (1 μg) was converted to cDNA using SuperScript II (Promega, Madison, Wis.). The amplification cycle was 95° C. for 5 s, 60° C. for 20 s, and 72° C. for 15 s.
The following primers were used: […]
To understand what is the mechanism behind the prophylactic treatment of Kp-10 we examined the expression of total brain-derived neurotrophic factor (BDNF) and its exon transcripts 1-4 according to Zajac et al. (2010). […] Recently, association between a BDNF variant and childhood-onset mood disorder was established (Strauss et al., 2005). Therefore, we studied mRNA expression of a few BDNF transcripts in the hippocampus of offspring of PBS treated dams (n=5) compared to offspring of poly I:C treated dams, which were treated at 8 weeks with either Kp-10 (n=6) or PBS (n=6) (Table 3). […] Treatment with Kp-10 at 8 weeks of age induced an increase in the expression of BDNF1 transcript to the normal level (Table 3(ii)). […] In addition, no significant difference was found between the groups in the expression of BDNF transcripts 3 and 4 (Table 3(iv and v)). […] The involvement of BDNF in schizophrenia and its effect on PPI levels are still a debate. Our observations of changes in expression of selective forms of BDNF might explain this apparent dichotomy.

Lewis rats [5] = assay: PPI in offspring of poly I:C treated Lewis rats; format: in vivo; conditions: pregnant Lewis rats 4 mg/kg poly I:C, vs progeny of saline-treated animals
Protocol: as §2
as §1, with “trials.” for “trials. Data from no-stimulation trials are not included in the results because the values obtained were negligible relative to values from trials containing startle stimuli. Reduced PPI is associated with schizophrenia-related behavior.”

KiSS-1 = assay: qPCR of KiSS-1 mRNA in hippocampus; format: in vivo, mouse; conditions: adult poly I:C affected mice vs age-matched controls
naive C57B1/6 mice [6] = conditions: neurotensin receptor antagonist alone (Binder et al., 2001); cited from earlier work

Q: With C[C@]12N[C@H](Cc3ccccc31)c1ccccc12 [MK-801, [+]-5-methyl-10,11-dihydro-5H-dibenzo-[a,d]-cyclohepten-5,10-imine hydrogen maleate, reference compound] as the compound, how does the PPI response (C57B1/6 mice) read?
A: Its PPI response is “significantly reduced PPI response”.

Q: For CC(=O)N[C@H](Cc1ccc2ccccc2c1)C(=O)N[C@H](Cc1ccc(Cl)cc1)C(=O)N[C@H](Cc1cccnc1)C(=O)N[C@@H](CO)C(=O)N[C@@H](Cc1ccc(O)cc1)C(=O)N[C@H](CCCNC(N)=O)C(=O)N[C@@H](CC(C)C)C(=O)N[C@@H](CCCNC(=N)N)C(=O)N1CCC[C@H]1C(=O)N[C@H](C)C(N)=O [Cetrotide™, Cetrorelix Acetate, reference compound] (Ac-[d2Nal][dPhe(4-Cl)][d3Pal]SY[dCit]LRP[dA]-NH2), which PPI (naive C57B1/6 mice [1]) is on record?
A: Its PPI is “did not affect PPI”.

Q: For Cc1nc2n(c(=O)c1CCN1CCC(c3noc4cc(F)ccc34)CC1)CCCC2 [Risperidone], which “onset of psychotic symptoms and abnormal brain development” value [2] is on record?
A: The value was “prevented the onset psychotic symptoms and abnormal brain development”.

Q: With “polyriboinosinic-polyribocytidylic acid [poly I:C]” as the compound, how does the “Duration of EAE (day ± SEM)” value (Lewis rats [3]) read?
A: Its value is 5.08 ± 0.3 days.

Q: What about the “Onset of EAE (day ± SEM)” value (Lewis rats [3]) of the same compound?
A: The value was 11.17 ± 0.2 days.

Q: What about the “Lymphocyte proliferation (PI ± SD)” value (lymphocytes; antigen Con-A) of the same compound?
A: Its value is 126 ± 67.

Q: And the “Lymphocyte proliferation (PI ± SD)” value (lymphocytes; antigen MBP68-86)?
A: The value was 1.0 ± 0.11.

Q: What about the “Lymphocyte proliferation (PI ± SD)” value (lymphocytes; antigen Ova) of the same compound?
A: The value was 1.2 ± 0.09.

Q: And the “PPI in adult offspring” value [4]?
A: The value was “reduced PPI”.

Q: What about the “Expression of BDNF1 transcript” value (BDNF) of the same compound?
A: The value was 1.2 ± 0.3.

Q: And the “Expression of BDNF2 transcript” value (BDNF)?
A: Its value is 5.7 ± 0.1.

Q: What about the “Expression of BDNF3 transcript” value (BDNF) of the same compound?
A: Its value is 6.2 ± 0.9.

Q: And the “Expression of BDNF4 transcript” value (BDNF)?
A: The value was 7.4 ± 1.

Q: And the “Expression of BDNF transcript (total BDNF)” value (BDNF)?
A: Its value is 1.7 ± 0.6.

Q: What about the “PPI in adult offspring” value (Lewis rats [5]) of the same compound?
A: Its value is “reduction in PPI”.

Q: What about the “KiSS-1 mRNA levels in hippocampus” value (KiSS-1) of the same compound?
A: The value was “reduction in KiSS-1 mRNA levels”.

Q: With COc1cccc(OC)c1-c1cc(C(=O)NC2(C(=O)O)C3CC4CC(C3)CC2C4)nn1-c1ccc(C(=O)N(C)CCCN(C)C)cc1C(C)C (centres unmarked) [NTA] as the compound, how does the PPI levels (naive C57B1/6 mice [6]) read?
A: Its PPI levels is “does not affect PPI levels”.
